# According to a melting point compilation (Tetko et al.; mined from patent text by program, amines drawn as free bases though some values may be those of a salt):
row,SMILES,melting point
1,COC(=O)c1ccc(C=C(CBr)C(=O)OC(C)(C)C)cc1,78 °C
2,CCC(O)=C1C(=O)OC(C)(C)OC1=O,43 to 46 °C
3,COc1ccc(N2CCN(C(=S)C3(C)CCc4c(C)c(O)c(C)c(C)c4O3)CC2)cc1 (stereo not given),120 to 121 °C
4,Cc1noc(C)c1Cn1cc(N2C(=O)N(Cc3cc(O[Si](C)(C)C(C)(C)C)cc(O[Si](C)(C)C(C)(C)C)c3)C(C)(C)C2=O)cn1,213 to 215 °C
5,CCCc1nc2c(N)nc3ccccc3c2n1CCOCCCSC,99 to 101 °C
6,COc1ccc(-n2nc(C(C)(C)C)cc2NC(=O)c2cccc3cc(Oc4cc(NCCN(C)C)ncn4)ccc23)cc1,116 to 117 °C
7,Cc1ccc(C(=O)O)c(NS(C)(=O)=O)c1,202 to 205 °C
8,CCN(CC)c1ccc(/C=C/c2cc(/C=C/c3ccc4cc[nH]c4c3)[nH]n2)c(OCCN2CCOCC2)c1,96 to 99 °C
9,CCCCCCCCCCCCCCOC(=O)c1cc(Cl)c(N2N=C(Nc3cc(N4CCCC4=O)ccc3Cl)CC2=O)c(Cl)c1,143 to 146 °C
10,CCN(CC)C(=O)n1cnc(S(=O)(=O)CC2CCC2)n1,113 to 116 °C
11,CC(C)Sc1ccc2c(c1)NC(=O)C2,99 to 102 °C
12,COC(=O)c1ccc2[nH]c(=O)oc(=O)c2c1,275 to 278 °C
13,COc1ccc(C(=O)c2cnoc2C)cc1,78 to 79 °C
14,N#Cc1ccc(-c2ccc(OS(N)(=O)=O)cc2)cc1Cn1cncn1,179 to 180 °C
15,COc1cc(OC)c2ccccc2c1OC(C)=O,116 to 117 °C
16,Cc1cc2c(cc1C13CC1CCC3=Cc1ccc(C(=O)O)cc1)C(C)(C)CCC2(C)C (stereo not given),274 to 275 °C
17,Cc1ccc(Br)c(S(=O)O)c1,120 to 122 °C
18,Nc1ncnc2c1ncn2C1OC(C(O)C(=O)NC2CCCC2)C(O)C1O (stereo not given),155 to 157 °C
19,CC(Cl)=CCC1CCC2C(C=CC3=CCCc4c3n2c2ccncc42)C1 (stereo not given),130 to 132 °C
20,CCCCCCCCCCCCCCCCCCOS(=O)(=O)NC(=O)Nc1c(C(C)C)cccc1C(C)C,95 to 98 °C

row,SMILES,melting point
1,COc1cccc(C(C)c2ccc(-c3cnn4c(O)ncnc34)cc2)c1 (stereo not given),282 to 285 °C
2,CN(C)c1cccc2c1C(=O)NS2(=O)=O,228 to 229 °C
3,CCCSC(C)c1c(-c2ccc(S(C)(=O)=O)cc2)cnn(-c2ccc(F)cc2)c1=O (stereo not given),45 to 60 °C
4,CC(C)(C)OCC1CN(c2ccc3cc(O)ccc3c2)C(=O)O1 (stereo not given),177 to 178 °C
5,O=C1c2ccccc2OC2CCCON12 (stereo not given),139 to 141 °C
6,CCC(O)(CCCCO)C(=O)Nc1ccnc(Br)c1 (stereo not given),103 °C
7,Nc1nsnc1NCCCOc1cccc(CN2CCCCC2)c1,137 to 138 °C
8,CCOC(=O)C(C#N)=CNc1ncc(C)cc1C,156 to 159 °C
9,O=C(CCc1ccccc1)OCCOC(=O)NC1(C(=O)O)CC1,133 to 134 °C
10,CCC(Oc1ccccc1)C(=O)OC1CC(O)C=C2C=CC(C)C(CCC3CC(O)CC(=O)O3)C21 (mixture of isomers),120 to 122 °C
11,CCNc1nc(SC)ncc1CNc1c(F)c(OC)cc(OC)c1F,95 to 99 °C
12,CCCCCCCCC(SCCCCCC)C(=O)Nc1c(SC)nc(C)nc1SC (stereo not given),95 to 97.5 °C
13,CSc1ccc(CC(=O)O)cc1Cl,106 to 108 °C
14,CCOC(=O)C(C#N)=C(SC)N1CCc2ccccc2CC1,88 to 93 °C
15,Cc1nc(C(C)C)nc(C)c1N1CCCn2c1nc1c(Cl)ccc(C(OC(F)F)C(F)(F)F)c12 (stereo not given),204 to 206 °C
16,C#CCOc1cc(-c2cc(C)c(C(F)(F)F)n(C)c2=O)c(F)cc1Cl,107 to 108 °C
17,O=c1[nH]c2ccc(C3CCNCC3)cc2[nH]1,214 to 215 °C
18,CCCCCCCCCCCCCCCCc1cc(OC)nc(N(C)C)n1,49 to 50 °C
19,Cc1ccc(OCCN2CCN(c3nc(N)nc(-c4cc(Cl)ccc4Cl)n3)CC2)cc1,140 to 141 °C
20,CC(=CC(=O)OCCCCCCCCC(=O)O)CC1OCC(CC2OC2C(C)C(C)O)C(O)C1O (stereo not given),73 to 75 °C

row,SMILES,melting point
1,COC(=O)/C=C/n1cnc2ccc(OC)cc2c1=O,184 to 186 °C
2,COc1ccc(-c2ccc(N)nn2)cc1OC1CCCC1,207 °C
3,CCCCCCCCCCCCCCCCCC(=O)Oc1ccccc1C(=O)OCC,50.5 to 53.5 °C
4,COC(=O)c1cc(C)nc(Nc2ccc(C(C)C)cc2Br)n1,75 to 76 °C
5,COC(=O)c1cccc([N+](=O)[O-])c1CS(N)(=O)=O,119 to 123 °C
6,Cc1cc2c(cc1-c1ccc(C=CC(=O)O)s1)C(C)(C)CCC2(C)C,175 to 177 °C
7,CCc1nc2c(cnn2CC)c(NC2CCOCC2)c1CNC(=O)c1cccc(C(=O)NCc2ccc(C)c(-c3cccc(CN4CCN(C)CC4)c3)c2)c1,121 to 124 °C
8,Cn1nc(Nc2cc(-c3ccc4c(c3)NC(=O)C4)cn3ccnc23)cc1C(C)(C)O,180 to 182 °C
9,CCOc1ccc(-n2c(Cl)ccc2-c2ccc(S(N)(=O)=O)cc2)cc1,124 to 125 °C
10,CCOC(=O)CCc1cccc2c(=O)c3cc(C(=O)OC)c(OCCCCC=Cc4ccc(OC)cc4)cc3oc12,107 to 109 °C
11,CC(=O)OC1CSC(Oc2cncc(-c3cnoc3C)c2)C(OC(C)=O)C1OC(C)=O (stereo not given),127 °C
12,O=C(Nc1ccccc1)ONC1=Nc2ccc(Cl)cc2C(c2ccccc2)=NC1,215 to 217 °C
13,COc1ccc(/C=C/C#N)cc1OC,93 to 98 °C
14,CN(C)CCN1C(=O)C(N)C(=O)N(CC2CCCCC2)c2ccccc21 (stereo not given),94 to 95 °C
15,Cc1ccc(Br)c(C)c1C(=O)O,121 °C
16,CC(C)(C)[Si](C)(C)Oc1ccc(C(=O)O)cc1C12CC3CC(CC(C3)C1)C2,250 to 252 °C
17,CC(=NNC=O)c1ccncc1Cl,175 °C
18,c1ccc2c(Cn3ccnc3)noc2c1,52 to 55 °C

# Other lines, results leading:
row,melting point,SMILES
1,230 °C,Cn1c(-c2ccccc2)c(C2CCC(C(=O)O)(C(=O)O)CC2)c2ccccc21
2,81 to 83 °C,COC(=O)C=C1Oc2ccccc2Oc2ccccc21
3,189 to 191 °C,Cc1cccc(NC(c2ccccc2O)c2ccc3cccnc3c2O)n1 (stereo not given)
4,144 °C,COC(=O)c1cccc(-c2cn(C)cc(-n3cccn3)c2=O)c1
5,209 to 210 °C,O=S(=O)(Nc1cccc2cc(-c3ncc(CO)s3)[nH]c12)c1cccs1
6,208 to 209 °C,Cc1ccccc1N(C)c1nc(=O)c2cccnc2s1
7,206 °C,O=C(C=Cc1ccc(CO)cc1)N1CCc2c([nH]c3ccccc23)C1c1ccc2c(c1)OCO2 (stereo not given)
8,100 to 101 °C,COc1c(O)cccc1C(=O)C1CCN(CCc2ccc(F)cc2)CC1
9,136 to 137 °C,Cc1cc(NCc2ccccc2)nc(-n2nc(C)cc2C)n1
10,143 to 144 °C,COC(=O)C(Oc1cc(OCc2ccsc2)cc(F)c1C#N)c1ccccc1Cl (racemic)
11,> 300 °C,O=C(O)c1ccnc2[nH]c(CCc3ccccc3)cc12
12,125 to 128 °C,O=C1CN(Cc2ccccc2)CC2c3ccccc3CCCN12 (stereo not given)
13,125 °C,CC1CNc2c(cccc2[N+](=O)[O-])C(=O)N1Cc1ccccc1 (stereo not given)
14,390 to 392 °C,O=c1c2ccc(Cl)cc2[nH]c2c(=O)n(-c3ccc(F)cc3)nc(O)c12
15,91 to 93 °C,ON=C(c1ccccc1)c1cc(F)cc(F)c1
16,80 to 85 °C,COC(=O)c1ccc(CNC(=O)[C@@H]2Cc3ccccc3N2S(=O)(=O)c2ccc(I)cc2)cc1
17,71 to 73 °C,O=C(c1ccccc1)c1ccc(OCCCCNS(=O)(=O)c2ccc(Br)cc2)cc1
18,168 to 169 °C,COC(=O)C1Cc2cc(Br)ccc2N1C(=O)c1ccccc1 (stereo not given)
19,60 °C,Cc1ccc(S(=O)(=O)NCCN2C(=O)C3(CCCC3)c3ccccc32)cc1
20,214 to 216 °C,CC(=O)CC(C)(C)Cn1cnc2c(N)nc3ccccc3c21
21,166 to 169 °C,S=C(NCCc1ccccc1Cl)Nc1nc2ccccc2[nH]1

row,melting point,SMILES
1,185 °C,O=C(COc1cc(-c2ccccn2)nc2ccccc12)N1CCOCC1
2,227 to 229 °C,Nc1ccc2sc3ccccc3c(=O)c2c1
3,128 to 130 °C,N#CC(=C(Cl)c1ccc(Br)cc1)c1ccccc1
4,> 40 °C,CCCCc1nnc(C(=O)N(C)Cc2ccccc2)n1Cc1ccc(-c2ccccc2C#N)cc1
5,162 to 164 °C,CCCCc1oc2ccccc2c1C(=O)Nc1ccc2cc(O)ccc2c1
6,181 to 182 °C,COc1cc(Oc2cccc(C(F)(F)F)c2)nc(C(=O)NN=C(C)c2ccccc2)c1
7,277 to 279 °C,Cc1nc2c(c(=O)[nH]1)-c1ccc(Cl)cc1C(c1ccccc1Cl)=NC2
8,155 to 157 °C,CC(C)(C)c1cc(-c2nn(Cc3ccccc3)c3ncccc23)cc(C(C)(C)C)c1O
9,104 to 107 °C,Cc1ncc2c(n1)-c1ccc(Cl)cc1C(c1ccccc1F)=NC2
10,190 to 192 °C,COC(=O)C1=C(C)Nc2ccccc2NC1c1ccccc1[N+](=O)[O-] (stereo not given)
11,249 to 253 °C,CCOc1ccc(C(=O)N2CCc3cc(S(=O)(=O)n4cc(-c5ccccc5)[nH]c4=O)ccc32)cc1
12,109 to 113 °C,Cc1cc2c(c3c1CCC3)OC(CNC(=O)OCc1ccccc1)C2 (stereo not given)
13,148 to 149 °C,c1ccc(-c2c[nH]c3ccccc23)cc1
14,270 to 272 °C,CNC(=S)n1nc(-c2ccc(Cl)c3ccccc23)nc1N
15,121 to 122 °C,CCOP(C)(=O)CC(Cc1ccccc1)NS(=O)(=O)c1ccc(C)cc1 (stereo not given)
16,166 to 169 °C,O=C(Cn1c(-c2nonc2NCCCO)nc2ccccc21)c1ccc(Cl)cc1
17,129 to 130 °C,COC(=O)c1ccc(OCCN2C(=O)c3ccccc3C2=O)cc1
18,186 to 190 °C,NS(=O)(=O)c1ccc(-c2c(-c3ccccc3)noc2CCO)cc1
19,117 to 118 °C,CC(C)OCc1cnc2c(NC(=O)c3c(Cl)cccc3Cl)cccc2c1Cl
20,93 to 96 °C,CC1(c2ccc(Cl)c(Cl)c2)CN(C(=O)c2ccc(F)c3ccccc23)CCN1C(=O)CNC1CCN(Cc2ccccc2)CC1 (racemic)
21,214 to 216 °C,Cc1cccc(NC(=O)NC2N=C(CO)c3cccc(C)c3N(CC(=O)N3CCCCCCC3)C2=O)c1 (stereo not given)
